Data taken from ChEMBL document CHEMBL4699404, “Arylsulfonyl histamine derivatives as powerful and selective alpha-glucosidase inhibitors” (RSC Med Chem, 2020).
Active and inactive are the calls of the source. No cut-off for these calls is given here.

How the values were obtained:
Saccharomyces cerevisiae [1] = experiment: Inhibition of Saccharomyces cerevisiae alpha-glucosidase using p-nitrophenyl-alpha-o-D-glucopyranoside as substrate at 100 uM measured for 10 mins by microplate assay relative to control
[2] = Inhibition of almonds beta-glucosidase using p-nitrophenyl-beta-o-D-glucopyranoside as substrate measured for 10 mins; design: species or system Prunus dulcis
Prunus dulcis = experiment: Inhibition of almonds beta-glucosidase using p-nitrophenyl-beta-o-D-glucopyranoside as substrate at 65 uM measured for 10 mins
[3] = molecular target: Mushroom tyrosinase (Agaricus bisporus) (UniProt O42713+Q00024+C7FF04+C7FF05); experiment: Inhibition of mushroom tyrosinase assessed as reduction in dopachrome formation at 40 uM using L-tyrosine as substrate measured for 30 mins by microplate assay
Saccharomyces cerevisiae [4] = experiment: Inhibition of Saccharomyces cerevisiae alpha-glucosidase using p-nitrophenyl-alpha-o-D-glucopyranoside as substrate at 122 uM measured for 10 mins by microplate assay relative to control
Kluyveromyces lactis = experiment: Inhibition of Kluyveromyces lactis beta-galactosidase using o-nitrophenyl-beta-o-D-galactopyranoside as substrate at 100 to 2500 uM measured for 10 mins; conditions: dose microM 100-2500, time 10.0 min
[5] = molecular target: Xanthine dehydrogenase/oxidase (Bos taurus, UniProt P80457); experiment: Inhibition of bovine milk xanthine oxidase assessed as reduction in uric acid formation at 3 uM using xanthine as substrate measured for 20 mins by microplate assay; conditions: cattle
[6] = Inhibition of porcine pancreatic alpha-amylase assessed as reduction in conversion of starch to glucose using starch as substrate at 200 uM incubated for 15 mins by starch-iodine method; design: species or system Sus scrofa; conditions: pig, 0.25 h
[7] = molecular target: Acetylcholinesterase (Electrophorus electricus) (UniProt O42275); experiment: Inhibition of electric eel AChE using acetylthiocholine iodide as substrate at 1.5 uM measured for 15 mins by Ellman's method relative to control
[8] = Inhibition of Kluyveromyces lactis beta-galactosidase using o-nitrophenyl-beta-o-D-galactopyranoside as substrate measured for 10 mins
[9] = Toxicity against C57BL/6 mouse assessed as general body position changes at 22.5 mg/kg, po administered via gavage; assay type: organism-based; conditions: in vivo
Mus musculus [10] = experiment: Hypoglycemic activity in C57BL/6 mouse assessed as reduction in sucrose-induced postprandial blood glucose level at 22.5 mg/kg, po administered via gavage and measured after 15 to 90 mins by oral sucrose loading test; assay type: functional, organism-based; conditions: time min 15-90
Saccharomyces cerevisiae [11] = experiment: Reversible inhibition of Saccharomyces cerevisiae alpha-glucosidase assessed as recovery of enzyme activity preincubated with enzyme for 30 mins followed by 100-fold dilution and challenge with substrate by jump dilution experiment based microplate assay; design: scale not given: the % may be the effect or the level left
[12] = Toxicity against C57BL/6 mouse assessed as locomotory changes at 22.5 mg/kg, po administered via gavage; assay type: organism-based; conditions: in vivo
Saccharomyces cerevisiae [13] = experiment: Potency index, ratio of acarbose Ki to test compound Ki for competitive inhibition of Saccharomyces cerevisiae alpha-glucosidase using varying levels of p-nitrophenyl-alpha-D-glucopyranoside as substrate by Lineweaver-Burk plot analysis
[14] = Toxicity against C57BL/6 mouse assessed as changes in water consumption at 22.5 mg/kg, po administered via gavage measured for 24 hrs; assay type: organism-based; conditions: in vivo
Mus musculus [15] = experiment: Hypoglycemic activity in C57BL/6 mouse assessed as reduction in postprandial blood glucose level at 22.5 mg/kg, po administered via gavage measured after 15 to 90 mins by glucometric analysis; assay type: functional, organism-based; conditions: time min 15-90
[16] = Toxicity against C57BL/6 mouse assessed as changes in food consumption at 22.5 mg/kg, po administered via gavage measured for 24 hrs; assay type: organism-based; conditions: in vivo
[17] = Toxicity against C57BL/6 mouse assessed as behavioural changes at 22.5 mg/kg, po administered via gavage; assay type: organism-based; conditions: in vivo

Xanthine dehydrogenase/oxidase, sequence (P80457 whole entry): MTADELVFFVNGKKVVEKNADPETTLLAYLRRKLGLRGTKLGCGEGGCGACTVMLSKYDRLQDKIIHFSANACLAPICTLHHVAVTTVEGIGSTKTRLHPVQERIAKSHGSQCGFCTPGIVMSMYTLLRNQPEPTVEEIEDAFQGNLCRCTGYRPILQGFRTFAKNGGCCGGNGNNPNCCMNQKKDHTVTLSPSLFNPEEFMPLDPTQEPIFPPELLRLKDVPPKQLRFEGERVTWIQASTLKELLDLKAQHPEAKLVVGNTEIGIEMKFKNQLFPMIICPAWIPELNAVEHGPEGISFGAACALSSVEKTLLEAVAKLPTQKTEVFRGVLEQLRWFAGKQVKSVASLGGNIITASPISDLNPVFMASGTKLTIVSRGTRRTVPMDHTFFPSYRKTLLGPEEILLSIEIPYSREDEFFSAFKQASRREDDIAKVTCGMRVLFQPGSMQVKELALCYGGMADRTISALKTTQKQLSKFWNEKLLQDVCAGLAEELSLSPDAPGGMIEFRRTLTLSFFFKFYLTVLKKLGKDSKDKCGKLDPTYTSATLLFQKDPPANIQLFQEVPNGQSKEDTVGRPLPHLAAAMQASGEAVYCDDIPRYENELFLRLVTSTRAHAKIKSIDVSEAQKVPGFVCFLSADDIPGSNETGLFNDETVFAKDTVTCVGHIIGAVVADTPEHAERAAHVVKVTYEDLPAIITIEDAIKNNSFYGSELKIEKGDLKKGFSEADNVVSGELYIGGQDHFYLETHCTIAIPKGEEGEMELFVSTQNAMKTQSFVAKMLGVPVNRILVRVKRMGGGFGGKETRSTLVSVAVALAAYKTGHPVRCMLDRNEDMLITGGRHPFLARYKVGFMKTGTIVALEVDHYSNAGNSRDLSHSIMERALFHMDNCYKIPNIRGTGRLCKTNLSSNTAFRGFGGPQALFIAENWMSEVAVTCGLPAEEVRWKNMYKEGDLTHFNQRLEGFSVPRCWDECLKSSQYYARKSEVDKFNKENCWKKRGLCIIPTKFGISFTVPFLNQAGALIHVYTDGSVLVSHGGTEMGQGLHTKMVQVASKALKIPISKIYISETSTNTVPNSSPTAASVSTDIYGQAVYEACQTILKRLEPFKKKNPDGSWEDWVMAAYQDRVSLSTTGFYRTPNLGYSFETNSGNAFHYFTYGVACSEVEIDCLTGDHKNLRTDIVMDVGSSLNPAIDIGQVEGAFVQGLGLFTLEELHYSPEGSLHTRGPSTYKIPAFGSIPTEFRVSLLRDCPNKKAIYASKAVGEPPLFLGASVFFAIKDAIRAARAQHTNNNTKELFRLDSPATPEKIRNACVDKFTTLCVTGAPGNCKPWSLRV
Acetylcholinesterase (Electrophorus electricus), sequence (O42275 24-633 limits assumed): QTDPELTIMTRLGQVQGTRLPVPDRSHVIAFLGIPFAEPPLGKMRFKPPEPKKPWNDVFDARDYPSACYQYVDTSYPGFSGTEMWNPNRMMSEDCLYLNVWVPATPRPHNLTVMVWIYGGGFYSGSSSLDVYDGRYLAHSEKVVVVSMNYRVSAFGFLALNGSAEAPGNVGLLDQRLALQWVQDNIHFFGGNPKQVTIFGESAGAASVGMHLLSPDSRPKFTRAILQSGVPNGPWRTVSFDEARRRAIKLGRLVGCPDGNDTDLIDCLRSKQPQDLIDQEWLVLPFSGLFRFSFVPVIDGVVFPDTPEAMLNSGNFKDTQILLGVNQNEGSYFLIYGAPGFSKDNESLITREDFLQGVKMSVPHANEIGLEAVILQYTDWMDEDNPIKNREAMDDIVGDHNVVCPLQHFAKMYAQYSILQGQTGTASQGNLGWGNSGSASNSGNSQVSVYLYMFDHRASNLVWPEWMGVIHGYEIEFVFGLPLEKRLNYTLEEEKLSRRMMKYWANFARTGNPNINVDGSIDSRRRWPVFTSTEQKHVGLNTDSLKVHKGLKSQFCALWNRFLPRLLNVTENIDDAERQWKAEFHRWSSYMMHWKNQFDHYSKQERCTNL

SMILES: O=S(=O)(NCCc1cn(S(=O)(=O)c2ccc(F)cc2)cn1)c1ccc(F)cc1
- inhibition (Saccharomyces cerevisiae [1]): > 50%

SMILES: Cc1ccc(S(=O)(=O)NCCc2cn(S(=O)(=O)c3ccc(C)cc3)cn2)cc1
- inhibition (Saccharomyces cerevisiae [1]): > 50%

SMILES: O=S(=O)(NCCc1cn(S(=O)(=O)c2cc(F)c(F)c(F)c2)cn1)c1cc(F)c(F)c(F)c1
- inhibition (Saccharomyces cerevisiae [1]): > 50%

SMILES: COc1ccc(S(=O)(=O)NCCc2c[nH]cn2)cc1F
- inhibition (Saccharomyces cerevisiae [1]): < 50%

SMILES: OC[C@H]1NC[C@H](O)[C@@H](O)[C@@H]1O [DUVOGLUSTAT]
- IC50 [2]: 65.2 µM

SMILES: O=S(=O)(NCCc1cn(S(=O)(=O)c2ccccc2)cn1)c1ccccc1
- inhibition (Saccharomyces cerevisiae [1]): > 50%

SMILES: O=S(=O)(NCCc1c[nH]cn1)c1ccccc1
- inhibition (Saccharomyces cerevisiae [1]): < 50%

SMILES: O=S(=O)(NCCc1cn(S(=O)(=O)c2ccc(F)cc2Cl)cn1)c1ccc(F)cc1Cl
- inhibition (Saccharomyces cerevisiae [1]): > 50%

SMILES: O=S(=O)(NCCc1c[nH]cn1)c1ccc(F)cc1
- inhibition (Saccharomyces cerevisiae [1]): < 50%

SMILES: O=S(=O)(NCCc1c[nH]cn1)c1ccc(C(F)(F)F)cc1
- inhibition (Saccharomyces cerevisiae [1]): < 50%

SMILES: O=S(=O)(NCCc1c[nH]cn1)c1cc(F)c(F)c(F)c1
- inhibition (Saccharomyces cerevisiae [1]): < 50%

SMILES: Cc1ccc(F)c(S(=O)(=O)NCCc2cn(S(=O)(=O)c3cc(C)ccc3F)cn2)c1
- inhibition (Prunus dulcis): inactive
- inhibition [3]: inactive
- inhibition (Saccharomyces cerevisiae [4]): 72.2%
- inhibition (Kluyveromyces lactis): inactive
- inhibition (Saccharomyces cerevisiae [1]): > 50%
- inhibition (INH) [5]: Not Active
- inhibition (INH) [6]: Not Active
- inhibition [7]: 7.14%

SMILES: COc1ccc(S(=O)(=O)NCCc2cn(S(=O)(=O)c3ccc(OC)c(F)c3)cn2)cc1F
- inhibition (Saccharomyces cerevisiae [1]): > 50%

SMILES: OC[C@H]1NC[C@H](O)[C@@H](O)[C@H]1O
- IC50 [8]: 90 µM

SMILES: O=S(=O)(NCCc1cn(S(=O)(=O)c2ccc(F)cc2C(F)(F)F)cn1)c1ccc(F)cc1C(F)(F)F
- inhibition (Saccharomyces cerevisiae [1]): > 50%

SMILES: O=S(=O)(NCCc1cn(S(=O)(=O)c2c(F)c(F)c(F)c(F)c2F)cn1)c1c(F)c(F)c(F)c(F)c1F
- inhibition (Saccharomyces cerevisiae [1]): > 50%

SMILES: O=S(=O)(NCCc1c[nH]cn1)c1ccc(F)cc1C(F)(F)F
- inhibition (Saccharomyces cerevisiae [1]): < 50%

SMILES: Cc1ccc(S(=O)(=O)NCCc2c[nH]cn2)cc1
- inhibition (Saccharomyces cerevisiae [1]): < 50%

SMILES: O=S(=O)(NCCc1cn(S(=O)(=O)c2ccc(C(F)(F)F)cc2)cn1)c1ccc(C(F)(F)F)cc1
- inhibition (Prunus dulcis): inactive
- inhibition [3]: inactive
- inhibition (Saccharomyces cerevisiae [4]): 79.9%
- inhibition (Kluyveromyces lactis): inactive
- Activity [9]: Non-Toxic
- Activity (Mus musculus [10]): Active
- Activity (Saccharomyces cerevisiae [11]): 97%
- inhibition (Saccharomyces cerevisiae [1]): > 50%
- Activity [12]: Non-Toxic
- inhibition (INH) [5]: Not Active
- Ratio Ki (Saccharomyces cerevisiae [13]): 7
- Activity [14]: Non-Toxic
- inhibition (INH) [6]: Not Active
- inhibition [7]: 2.31%
- Activity (Mus musculus [15]): Active
- Activity [16]: Non-Toxic
- Activity [17]: Non-Toxic

SMILES: Cc1ccc(F)c(S(=O)(=O)NCCc2c[nH]cn2)c1
- inhibition (Saccharomyces cerevisiae [1]): < 50%
